As a reminder, the IC50 is the concentration at which inhibition is half-maximal.

In this experiment the target is T1, human FPTase (Homo sapiens, UniProt P49354+P49356).
T1 construct: made in house
Briefly: In vitro inhibition of Ras farnesyl transferase (human FPTase). It counts as biochemical. To be noted: [3H]-FPP incorporation, 100 nM Ras-CVIM, 30 min; read-out: IC50 against human FPTase.

Counter-ions that a name gives are not always drawn.

In the case of `N#Cc1ccc(Cn2cncc2CCC(=O)Nc2cccc(Cl)c2)cc1` [Example 1, N-(3-chlorophenyl)-3-[1-(4-cyanobenzyl)-5-imidazolyl]propionamide hydrochloride], the IC50 was < 10 µM.

The values above are taken from patent US5968965A, “Inhibitors of farnesyl-protein transferase” (Merck & Co., Inc., priority 1997, dated 1999).
